From patent US4761483A, “Chloro-substituted ketone imidazole derivatives” (G. D. Searle & Co., priority 1985, dated 1988)
≈ marks a conversion by molar mass, not a printed value. Where “and” joins values, the source holds several entries; their conditions need not be identical. Equal values may be shown once. Where a name gives a salt, the structure may show the parent alone. Read-outs that look alike come from different tables or passages of the source.

Tests used:
[1] = system: B. fragilis NCTC 10581; assay: anti-anaerobic activity, MIC/MBC in 96 well microtitre plates, strain A; assay type: cell-based, Bacteroides fragilis; conditions: for MBC / MIC: Bacteroides fragilis, NCTC10581, 48 h; for MBC: read-out: MBC (Minimum Bactericidal Concentration); for MIC: read-out: MIC (Minimum Inhibitory Concentration)
[2] = system: B. fragilis NCTC 9343; assay: anti-anaerobic activity, MIC/MBC in 96 well microtitre plates, strain B; assay type: cell-based, Bacteroides fragilis; conditions: for MIC / MBC: Bacteroides fragilis; for MIC: read-out: MIC (Minimum Inhibitory Concentration); for MBC: 99.9% reduction in viable count after 48 hours
[3] = system: B. fragilis NCTC 9344; assay: anti-anaerobic activity, MIC/MBC in 96 well microtitre plates, strain C; assay type: cell-based, Bacteroides fragilis; conditions: for MBC / MIC: Bacteroides fragilis, NCTC9344, 48 h; for MBC: read-out: MBC (Minimum Bactericidal Concentration); for MIC: read-out: MIC (Minimum Inhibitory Concentration)
[4] = system: B. fragilis MZ-R ATCC 11295; assay: anti-anaerobic activity, MIC/MBC in 96 well microtitre plates, strain D; assay type: cell-based, Bacteroides fragilis; conditions: for MBC / MIC: Bacteroides fragilis, ATCC11295, 48 h; for MBC: read-out: MBC (Minimum Bactericidal Concentration); for MIC: read-out: MIC (Minimum Inhibitory Concentration)
Method: The screening panel utilized in the Example consisted of 5 strains of Bacteroides fragilis. All assays were carried out in 96 well microtitre plates. If an isolate was obtained from either a culture collection or clinical source, the isolate was immediately innoculated into Wilkens-Chalgren broth (Oxoid) and incubated at 37° C. in an anaerobic chamber in an atmosphere of 85% nitrogen, 10% carbon dioxide, and 5% hydrogen for 48 hours. At the end of this time, the viable count was about […] broth. A 1 ml aliquot of each culture was placed in an ampoule and quick frozen in acetone-dry ice mixture and stored in liquid nitrogen. When an inoculum was utilized in an assay, one of the ampoules was thawed and diluted with fresh broth to yield a suspension having a count of 5×10^5 organisms/ml. A 100 μl aliquot of the suspension was inoculated into each well of the microtitre plate. A 2 mg sample of the test compound wa dissolved in 0.2 ml of a suitable solvent such as dimethylsulfoxide, polyethylene glycol 200 or methanol. The solution was then diluted with 4.8 ml of water to yield a solution having a concentration of 400 mg/L. Doubling dilutions of this stock were prepared to give a range of concentrations from 1.6-200 mg/L. 100 μl of each concentration were then placed in the wells of the microtitre plate containing the inoculum, to produce a final concentration range of 0.8-100 mg/l. Metronidazole was employed as a positive control and a solvent/water mixture was employed as a negative control. After addition of the test solution the final inoculum level was 10^5 cells/ml. The plates were incubated for 48 hours at 37° C. in the anaerobic chamber. The Minimum Inhibitory Concentration (MIC) was read visually. The MIC is defined as the lowest concentration at which there is no detectable growth. The Minimum Bactericidal Concentration (MBC) was determined by taking a 50 μl aliquot from each well and placing it in fresh medium. […] The strains of Bacteroides fragilis utilized in the above procedure are identified by letter in accordance with the following legend: |D B. fragilis MZ-R ATCC 11295

[5] = system: B. fragilis WS-1; assay: anti-anaerobic activity, MIC/MBC in 96 well microtitre plates, strain E; assay type: cell-based; conditions: Bacteroides fragilis; for MIC: 48 hours at 37° C., anaerobic chamber, 10^5 cells/ml, read-out: MIC (Minimum Inhibitory Concentration); for MBC: 99.9% reduction in viable count after 48 hours
[6] = system: Clostridium perfringens NCTC 523; assay: microbe, parasite or virus in culture; assay type: cell-based; conditions: NCTC523
[7] = system: Clostridium perfringens NCTC 8237; assay: microbe, parasite or virus in culture; assay type: cell-based; conditions: NCTC8237
[8] = system: Campylobacter fetus ATCC 29428; assay: anti-anaerobic activity, MIC (procedures of Example 13); assay type: cell-based; conditions: ATCC29428, procedures of Example 13 (there mg/L)
[9] = system: Fusobacterium necrophorum ATCC 11295; assay: as above; assay type: cell-based; conditions: ATCC11295, procedures of Example 13 (there mg/L)
[10] = system: Peptococcus magnus ATCC 29328; assay: as above; assay type: cell-based; conditions: Finegoldia magna, ATCC29328
[11] = system: Peptococcus prevotti ATCC 9321; assay: as above; assay type: cell-based
[12] = system: Peptostreptococcus anaerobicus ATCC 27337; assay: as above; assay type: cell-based; conditions: ATCC27337
[13] = system: Propionibacterium acnes NCTC 737; assay: as above; assay type: cell-based; conditions: Cutibacterium acnes, NCTC737, procedures of Example 13 (there mg/L)
[14] = system: Propionibacterium acnes NCTC 7337; assay: as above; assay type: cell-based; conditions: Cutibacterium acnes, NCTC7337, procedures of Example 13 (there mg/L)
[15] = strain A, 99.9% reduction in viable count after 48 hours
[16] = strain A, 48 hours at 37° C., anaerobic chamber, 10^5 cells/ml
[17] = NCTC9343, 48 h, strain B, 48 hours at 37° C., anaerobic chamber, 10^5 cells/ml
[18] = NCTC9343, strain B, read-out: MBC (Minimum Bactericidal Concentration)
[19] = strain C, 99.9% reduction in viable count after 48 hours
[20] = strain C, 48 hours at 37° C., anaerobic chamber, 10^5 cells/ml
[21] = 99.9% reduction in viable count after 48 hours
[22] = 48 hours at 37° C., anaerobic chamber, 10^5 cells/ml
[23] = WS1, strain E, read-out: MBC (Minimum Bactericidal Concentration)

Compound | MBC [1, 15] | MIC [1, 16] | MIC [2, 17] | MBC [2, 18] | MBC [3, 19] | MIC [3, 20] | MBC [4, 21] | MIC [4, 22] | MIC ([5]; WS1, 48 h, strain E) | MBC [5, 23] | other results
C[C@H](NC(=O)[C@@H](N)Cc1cn(CC(Cl)(C(=O)c2ccc(Cl)cc2Cl)c2ccccc2)cn1)C(=O)O (stereo partly drawn) [Example 10, N-[1-[2-Chloro-3-(2,4-dichlorophenyl)-3-oxo-2-phenylpropyl]-L-histidyl]-L-alanine] | 3.1 µg/mL (≈ 5.76 µM) | 3.1 µg/mL (≈ 5.76 µM) | 3.1 µg/mL (≈ 5.76 µM) | 3.1 µg/mL (≈ 5.76 µM) | 6.2 µg/mL (≈ 11.5 µM) | 3.1 µg/mL (≈ 5.76 µM) | 0.8 µg/mL (≈ 1.49 µM) | 0.8 µg/mL (≈ 1.49 µM) | 6.2 µg/mL (≈ 11.5 µM) | 6.2 µg/mL (≈ 11.5 µM) | –
N[C@@H](Cc1cn(CC(Cl)(C(=O)c2ccc(Cl)cc2Cl)c2ccccc2)cn1)C(=O)O (stereo partly drawn) [Example 8, 1-[2-Chloro-3-(2,4-dichlorophenyl)-3-oxo-2-phenylpropyl]-L-histidine] | 0.8 µg/mL (≈ 1.71 µM) | 0.8 µg/mL (≈ 1.71 µM) | 0.8 µg/mL (≈ 1.71 µM) | 0.8 µg/mL (≈ 1.71 µM) | 0.8 µg/mL (≈ 1.71 µM) | 0.8 µg/mL (≈ 1.71 µM) | 0.8 µg/mL (≈ 1.71 µM) | 0.8 µg/mL (≈ 1.71 µM) | 3.1 µg/mL (≈ 6.64 µM) | 3.1 µg/mL (≈ 6.64 µM) | –
C[C@H](NC(=O)[C@@H](N)CCCCNC(=O)/C=C/c1cn(CC(Cl)(C(=O)c2ccc(Cl)cc2Cl)c2ccccc2)cn1)C(=O)O (stereo partly drawn) [Example 12, N-[N^6-[E-3-[1-[2-Chloro-3-(2,4-dichlorophenyl)-3-oxo-2-phenylpropyl]imidazol-4-yl]propenoyl]-L-lysinyl]-L-alanine] | 3.1 µg/mL (≈ 4.78 µM) | 1.5 µg/mL (≈ 2.31 µM) | 1.5 µg/mL (≈ 2.31 µM) | 1.5 µg/mL (≈ 2.31 µM) | 3.1 µg/mL (≈ 4.78 µM) | 3.1 µg/mL (≈ 4.78 µM) | 0.8 µg/mL (≈ 1.23 µM) | 0.8 µg/mL (≈ 1.23 µM) | 6.2 µg/mL (≈ 9.55 µM) | 6.2 µg/mL (≈ 9.55 µM) | –
C[C@H](NC(=O)[C@H](Cc1cn(CC(Cl)(C(=O)c2ccc(Cl)cc2Cl)c2ccccc2)cn1)NC(=O)OC(C)(C)C)C(=O)OC(C)(C)C (stereo partly drawn) [Example 9, N-[1-[2-Chloro-3-(2,4-dichlorophenyl)-3-oxo-2-phenylpropyl]-N-[(1,1-dimethylethoxy)carbonyl]-L-histidyl]-L-alanine 1,1-dimethylethyl ester] | 6.2 µg/mL (≈ 8.93 µM) | 3.1 µg/mL (≈ 4.47 µM) | 3.1 µg/mL (≈ 4.47 µM) | 3.1 µg/mL (≈ 4.47 µM) | 6.2 µg/mL (≈ 8.93 µM) | 6.2 µg/mL (≈ 8.93 µM) | 0.8 µg/mL (≈ 1.15 µM) | 0.8 µg/mL (≈ 1.15 µM) | 12.5 µg/mL (≈ 18 µM) | 12.5 µg/mL (≈ 18 µM) | –
Cc1ncc([N+](=O)[O-])n1CCO [Metronidazole, reference compound] | 0.8 µg/mL (≈ 4.67 µM) | 0.8 µg/mL (≈ 4.67 µM) | 0.8 µg/mL (≈ 4.67 µM) | 0.8 µg/mL (≈ 4.67 µM) | 0.8 µg/mL (≈ 4.67 µM) | 0.8 µg/mL (≈ 4.67 µM) | 6.2 µg/mL (≈ 36.2 µM) | 6.2 µg/mL (≈ 36.2 µM) | – | 1.5 µg/mL (≈ 8.76 µM) | MBC [1]: 1.2 µg/mL (≈ 7.01 µM); MBC (Minimum Bactericidal Concentration) [1, 15]: 0.6 µg/mL (≈ 3.51 µM); MIC (Minimum Inhibitory Concentration) [1, 16]: 0.6 µg/mL (≈ 3.51 µM); MBC ([2]; NCTC9343, 48 h, read-out: MBC (Minimum Bactericidal Concentration), strain B): 1.2 µg/mL (≈ 7.01 µM); MIC (Minimum Inhibitory Concentration) ([2]; strain B, 48 hours at 37° C., anaerobic chamber, 10^5 cells/ml): 1.2 µg/mL and 0.6 µg/mL; MBC [3]: 1.2 µg/mL (≈ 7.01 µM); MBC (Minimum Bactericidal Concentration) [3, 19]: 0.6 µg/mL (≈ 3.51 µM); MIC (Minimum Inhibitory Concentration) [3, 20]: 0.6 µg/mL and 1.2 µg/mL; MBC (Minimum Bactericidal Concentration) [4, 21]: 10.0 µg/mL (≈ 58.4 µM); MIC (Minimum Inhibitory Concentration) [4, 22]: 10.0 µg/mL (≈ 58.4 µM); MBC ([5]; WS1, 48 h, read-out: MBC (Minimum Bactericidal Concentration), strain E): 1.2 µg/mL (≈ 7.01 µM); MIC [6]: 0.8 µg/mL (≈ 4.67 µM); MIC [7]: 0.8 µg/mL (≈ 4.67 µM); MIC [8]: > 100 µg/mL; MIC [9]: 6.2 µg/mL (≈ 36.2 µM); MIC [10]: 0.8 µg/mL (≈ 4.67 µM); MIC [11]: 1.5 µg/mL (≈ 8.76 µM); MIC ([12]; Peptostreptococcus): 0.8 µg/mL (≈ 4.67 µM); MIC [13]: > 100 µg/mL; MIC [14]: > 100 µg/mL
O=C(c1ccc(Cl)cc1Cl)C(Cl)(Cn1ccnc1)c1ccccc1 (stereo not drawn) [Example 4, 2-Chloro-1-(2,4-dichlorophenyl)-3-(imidazol-1-yl)-2-phenylpropan-1-one] | 6.2 µg/mL (≈ 16.3 µM) | 0.8 µg/mL (≈ 2.11 µM) | 0.8 µg/mL (≈ 2.11 µM) | 6.2 µg/mL (≈ 16.3 µM) | 12.5 µg/mL (≈ 32.9 µM) | 0.8 µg/mL (≈ 2.11 µM) | 3.1 µg/mL (≈ 8.16 µM) | 0.8 µg/mL (≈ 2.11 µM) | 0.8 µg/mL (≈ 2.11 µM) | 6.2 µg/mL (≈ 16.3 µM) | MIC [6]: 0.8 µg/mL (≈ 2.11 µM); MIC [7]: 0.8 µg/mL (≈ 2.11 µM); MIC [8]: 0.8 µg/mL (≈ 2.11 µM); MIC [9]: 0.8 µg/mL (≈ 2.11 µM); MIC ([10]; Peptococcus magnus ATCC 29328, procedures of Example 13 (there mg/L), read-out: MIC): 0.8 µg/mL (≈ 2.11 µM); MIC ([11]; Peptococcus prevotti ATCC 9321, procedures of Example 13 (there mg/L), read-out: MIC): 0.8 µg/mL (≈ 2.11 µM); MIC ([12]; Peptostreptococcus anaerobicus ATCC 27337, procedures of Example 13 (there mg/L), read-out: MIC): 0.8 µg/mL (≈ 2.11 µM); MIC [13]: 0.8 µg/mL (≈ 2.11 µM); MIC [14]: 0.8 µg/mL (≈ 2.11 µM)
O=C(O)/C=C/c1cn(CC(Cl)(C(=O)c2ccc(Cl)cc2Cl)c2ccccc2)cn1 (stereo not drawn) [Example 6, E-3-[1-[2-Chloro-3-(2,4-dichlorophenyl)-3-oxo-2-phenylpropyl]imidazol-1-yl]propenoic acid hydrochloride] | 0.8 µg/mL | 0.8 µg/mL | 1.5 µg/mL | 3.1 µg/mL | 0.8 µg/mL | 0.8 µg/mL | 0.8 µg/mL | 0.8 µg/mL | 3.1 µg/mL | 3.1 µg/mL | –
COC(=O)CCc1cn(CC(Cl)(C(=O)c2ccc(Cl)cc2Cl)c2ccccc2)cn1 (stereo not drawn) [Example 5, 3-[1-[2-Chloro-3-(2,4-dichlorophenyl)-3-oxo-2-phenylpropyl]-imidazol-4-yl]propanoic acid methyl ester] | 1.5 µg/mL (≈ 3.22 µM) | 1.5 µg/mL (≈ 3.22 µM) | 1.5 µg/mL (≈ 3.22 µM) | 1.5 µg/mL (≈ 3.22 µM) | 1.5 µg/mL (≈ 3.22 µM) | 1.5 µg/mL (≈ 3.22 µM) | 0.8 µg/mL (≈ 1.72 µM) | 0.8 µg/mL (≈ 1.72 µM) | 3.1 µg/mL (≈ 6.66 µM) | 3.1 µg/mL (≈ 6.66 µM) | –
